Patent US6541237B1, “A-1,4-glucan lyase and its use in the production of 1.5-androfructose” (Danisco A/S, priority 1994, dated 2003)
Values belong to the molecule of their own block, whether it stands above or below them.

Legend:
α-1,4-glucan lyase [1] = assay: Effect of alcohols on activity and stability of the lyase (AF yield); assay type: biochemical, Gracilariopsis lemaneiformis
Description: 1-propanol, 2-propanol and 1-butanol were tested at the following concentrations (0%, 1%, 5% and 10%).
Ethanol was tested at the following concentrations (0, 1, 3, 5, 7, 9, 11, 13, 15%).

α-1,4-glucan lyase [2] = assay: Degradation studies: AF released by the lyase from various substrates; assay type: biochemical, Gracilariopsis lemaneiformis; settings: for activity of the lyase towards maltosaccharides / degradation by the lyase: in words; for AF released: substrate 10 mg/ml, 10 mM HOAc-NaOAc pH 3.8, 40 min at 45° C., 100 ul
Description: Reaction conditions: The reaction mixture contained 10 mM of HOAc-NaOAc (pH 3.8). The substrate concentration was 10 mg/ml. The final volume was 100 ul after the addition of lyase and water. The reaction time was 40 min at 45° C.

α-1,4-glucan lyase [3] = assay: Reversible and irreversible inhibitors of the lyase; assay type: biochemical, Gracilariopsis lemaneiformis
[4] = Isoelectric focusing of the α-1,4-glucan lyases; assay type: physicochemical; settings: isoelectrofocusing, pH gradient 3-9
Description: The relative migration rates were estimated from native PAGE on gels with 8-25% gradient; the pI values were estimated by isoelectrofocusing on gels with a pH gradient of 3-9.
FIG. 2. Isoelectric focusing of the α-1,4-glucan lyases on a gel with a pH gradient of pH 3 to pH 9. The gel was stained with PhastGel Blue R.

increase of AF yield (α-1,4-glucan lyase [1]; optimal concentration 5%, after 3-day incubation): 52%
Molecule: 1-butanol

AF yield (α-1,4-glucan lyase [1]; 1% (v/v), reaction time 1 day): 80 µmol
AF yield (α-1,4-glucan lyase [1]; 1% (v/v), reaction time 3 days): 280 µmol
AF yield (α-1,4-glucan lyase [1]; 1% (v/v), reaction time 6 days): 530 µmol
AF yield (α-1,4-glucan lyase [1]; 1% (v/v), reaction time 10 days): 803 µmol
AF yield (α-1,4-glucan lyase [1]; 5% (v/v), reaction time 1 day): 115 µmol
AF yield (α-1,4-glucan lyase [1]; 5% (v/v), reaction time 3 days): 367 µmol
AF yield (α-1,4-glucan lyase [1]; 5% (v/v), reaction time 6 days): 605 µmol
AF yield (α-1,4-glucan lyase [1]; 5% (v/v), reaction time 10 days): 853 µmol
AF yield (α-1,4-glucan lyase [1]; 10% (v/v), reaction time 1 day): 107 µmol
AF yield (α-1,4-glucan lyase [1]; 10% (v/v), reaction time 3 days): 307 µmol
AF yield (α-1,4-glucan lyase [1]; 10% (v/v), reaction time 6 days): 456 µmol
AF yield (α-1,4-glucan lyase [1]; 10% (v/v), reaction time 10 days): 583 µmol
increase of AF yield (α-1,4-glucan lyase [1]; optimal concentration 5%, after 6 days of incubation): 34%
Molecule: 1-propanol

increase of AF yield (α-1,4-glucan lyase [1]; optimal concentration 1%, after 10 days incubation): 20%
Molecule: CC(C)O [2-propanol]

increase of AF yield (α-1,4-glucan lyase [1]; optimal concentration 3%, 10 days incubation): 16%
increase of AF yield (α-1,4-glucan lyase [1]; optimal concentration 5%, 7 days incubation): 12%
Molecule: CCO [Ethanol]

activity of the lyase towards maltosaccharides (α-1,4-glucan lyase [2]): highest activity
AF released (α-1,4-glucan lyase [2]): 670 nmol
Molecule: OC[C@H]1O[C@H](O[C@H]2[C@H](O)[C@@H](O)[C@@H](O[C@H]3[C@H](O)[C@@H](O)[C@@H](O[C@H]4[C@H](O)[C@@H](O)C(O)O[C@@H]4CO)O[C@@H]3CO)O[C@@H]2CO)[C@H](O)[C@@H](O)[C@@H]1O (stereo partly shown) [Maltotetraose]

activity of the lyase towards maltosaccharides (α-1,4-glucan lyase [2]): lower activity
AF released (α-1,4-glucan lyase [2]): 654 nmol
Molecule: OCC1OC(OC2C(CO)OC(OC3C(CO)OC(O)C(O)C3O)C(O)C2O)C(O)C(O)C1O (stereo not shown) [Maltotriose]

Molecule: O=C(O)c1cc[c]([Hg][Cl])cc1 [PCMB, p-chloromercuribenzoic acid]
decrease of lyase activity (α-1,4-glucan lyase [3]; 2 mM PCMB, same assay conditions as for deoxyjirimycin (substrate 2% amylopectin)): 60%
inhibition of the lyase activity (α-1,4-glucan lyase [3]; final concentration 2 mM PCMB): 96%

remaining lyase activity (α-1,4-glucan lyase [3]; 25 μM inhibitor, substrate amylopectin 2%, algal lyase): 10.4%
lyase activity (α-1,4-glucan lyase [3]; 100 μM inhibitor, substrate amylopectin 2%): completely lost
Molecule: OC[C@H]1NC[C@H](O)[C@@H](O)[C@@H]1O [deoxyjirimycin]

degradation by the lyase (α-1,4-glucan lyase [2]): not able to degrade
Molecule: OC[C@H]1O[C@H](OC[C@H]2OC(O)[C@H](O)[C@@H](O)[C@@H]2O)[C@H](O)[C@@H](O)[C@@H]1O (stereo partly shown) [isomaltose]

degradation by the lyase (α-1,4-glucan lyase [2]): slow rate
Molecule: OC[C@H]1O[C@H](O[C@H]2[C@H](O)[C@@H](CO)OC(O)[C@@H]2O)[C@H](O)[C@@H](O)[C@@H]1O (stereo partly shown) [nigerose]

degradation by the lyase (α-1,4-glucan lyase [2]): not able to degrade
Molecule: OC[C@H]1O[C@H](O[C@H]2O[C@H](CO)[C@@H](O)[C@H](O)[C@H]2O)[C@H](O)[C@@H](O)[C@@H]1O [trehalose]

degradation by the lyase (α-1,4-glucan lyase [2]): not able to degrade
Molecule: OC[C@H]1O[C@@H]2O[C@H]3[C@H](O)[C@@H](O)[C@@H](O[C@H]4[C@H](O)[C@@H](O)[C@@H](O[C@H]5[C@H](O)[C@@H](O)[C@@H](O[C@H]6[C@H](O)[C@@H](O)[C@@H](O[C@H]7[C@H](O)[C@@H](O)[C@@H](O[C@H]8[C@H](O)[C@@H](O)[C@@H](O[C@H]1[C@H](O)[C@H]2O)O[C@@H]8CO)O[C@@H]7CO)O[C@@H]6CO)O[C@@H]5CO)O[C@@H]4CO)O[C@@H]3CO [β-cyclodextrins]

activity of the lyase towards maltosaccharides (α-1,4-glucan lyase [2]): lower activity
AF released (α-1,4-glucan lyase [2]): 865 nmol
Molecule: Maltoheptaose

AF released (α-1,4-glucan lyase [2]): 826 nmol
Molecule: Maltohexaose

activity of the lyase towards maltosaccharides (α-1,4-glucan lyase [2]): highest activity
AF released (α-1,4-glucan lyase [2]): 674 nmol
Molecule: Maltopentaose

degradation by the lyase (α-1,4-glucan lyase [2]): not able to degrade
Molecule: nigeran tetrasaccharide

degradation by the lyase (α-1,4-glucan lyase [2]): slow rate
Molecule: panose

degradation by the lyase (α-1,4-glucan lyase [2]): not able to degrade
Molecule: pullulan

B1: MC-lyase: lyase isolated from the fungus Morchella costata, ATCC (protein)
chain: MAGFSDPLNFCKAEDYYSVALDWKGPQKIIGVDTTPPKSTKFPKNWHGVNLRFDDGTLGVVQFIRPCVWRVRYDPGFKTSDEYGDENTRTIVQDYMSTLSNKLDTYRGLTWETKCEDSGDFFTFSSKVTAVEKSERTRNKVGDGLRIHLWKSPFRIQVVRTLTPLKDPYPIPNVAAAEARVSDKVVWQTSPKTFRKNLHPQHKMLKDTVLDIVKPGHGEYVGWGEMGGIQFMKEPTFMNYFNFDNMQYQQVYAQGALDSREPLYHSDPFYLDVNSNPEHKNITATFIDNYSQIAIDFGKTNSGYIKLGTRYGGIDCYGISADTVPEIVRLYTGLVGRSKLKPRYILGAHQACYGYQQESDLYSVVQQYRDCKFPLDGIHVDVDVQDGFRTFTTNPHTFPNPKEMFTNLRNNGIKCSTNITPVISINNREGGYSTLLEGVDKKYFIMDDRYTEGTSGNAKDVRYMYYGGGNKVEVDPNDVNGRPDFKDNYDFPANFNSKQYPYHGGVSYGYGNGSAGFYPDLNRKEVRIWWGMQYKYLFDMGLEFVWQDMTTPAIHTSYGDMKGLPTRLLVTSDSVTNASEKKLAIETWALYSYNLHKATWHGLSRLESRKNKRNFILGRGSYAGAYRFAGLWTGDNASNWEFWKISVSQVLSLGLNGVCIAGSDTGGFEPYRDANGVEEKYCSPELLIRWYTGSFLLPWLRNHYVKKDRKWFQEPYSYPKHLETHPELADQAWLYKSVLEICRYYVELRYSLIQLLYDCMFQNVVDGMPITRSMLLTDTEDTTFFNESQKFLDNQYMAGDDILVAPILHSRKEIPGENRDVYLPLYHTWYPSNLRPWDDQGVALGNPVEGGSVINYTARIVAPEDYNLFHSVVPVYVREGAIIPQIEVRQWTGQGGANRIKFNIYPGKDKEYCTYLDDGVSRDSAPEDLPQYKETHEQSKVEGAEIAKQIGKKTGYNISGTDPEAKGYHRKVAVTQTSKDKTRTVTIEPKHNGYDPSKEVGDYYTIILWYAPGFDGSIVDVSKTTVNVEGGVEHQVYKNSDLHTVVIDVKEVIGTTKSVKITCTAA
pI [4]: 4.5

B2: GLsc1-lyase: lyase purified from Gracilariopsis lemaneiformis collected in Santa Cruz, Calif. (protein)
chain: TALSDKQTAISIGPDNPDGINYQNYDYIPVAGFTPLSNTNWYAAGSSTPGGITDWTATMNVKFDRIDNPSYSNNHPVQIQVTSYNNNSFRIRFNPDGPIRDVSRGPILKQQLTWIRNQELAQGCNPNMSFSPEGFLSFETKDLNVIIYGNCKMRVTKKDGYLVMENDECNSQSDGNKCRGLMYVDRLYGNAIASVQTNFHKDTSRNEKFYGAGEVNCRYEEQGKAPTYVLERSGLAMTNYNYDNLNYNQPDVVPPGYPDHPNYYIPMYYAAPWLVVQGCAGTSKQYSYGWFMDNVSQSYMNTGDTAWNCGQENLAYMGAQYGPFDQHFVYGDGDGLEDVVKAFSFLQGKEFEDKKLNKRSVMPPKYVFGFFQGVFGALSLLKQNLPAGENNISVQEIVEGYQDNDYPFEGLAVDVDMQDDLRVFTTKPEYWSANMVGEGGDPNNRSVFEWAHDRGLVCQTNVTCFLRNDNSGKPYEVNQTLREKQLYTKNDSLNNTDFGTTSDGPGDAYIGHLDYGGGVECDAIFPDWGRPDVAQWWGENYKKLFSIGLDFVWQDMTVPAMMPHRLGDAVNKNSGSSAPGWPNENDPSNGRYNWKSYHPQVLVTDMRYGAEYGREPMVSQRNIHAYTLCESTRREGIVGNADSLTKFRRSYIISRGGYIGNQHFGGMWVGDNSATESYLQMMLANIINMNMSCLPLVGSDIGGFTQYNDAGDPTPEDLMVRFVQAGCLLPWFRNHYDRWIESKKHGKKYQELYMYPGQKDTLKKFVEFRYRWQEVLYTAMYQNATTGEPIIKAAPMYNNDVNVYKSQNDHFLLGGHDGYRILCAPVVRENATSREVYLPVYSKWFKFGPDFDTKPLENEIQGGQTLYNYAAPLNDSPIFVREGTILPTRYTLDGVNKSINTYTDNDPLVFELFPLENNQAHGLFYHDDGGVTTNAEDFGKYSVISVKAAQEGSQMSVKFDNEVYEHQWGASFYVRVRNMGAPSNINVSSQIGQQDMQQSSVSSRAQMFTSANDGEYWVDQSTNSLWLKLPGAVIQDAAITVR
pI [4]: 4.1

B3: GLsc2-lyase: second lyase purified from Gracilariopsis lemaneiformis collected in Santa Cruz, Calif. (protein)
chain: TALSDKQTAISIGPDNPDGINYQNYDYIPVAGFTPLSNTNWYAAGSSTPGGITDWTATMNVKFDRIDNPSYSNNHPVQIQVTSYNNNSFRIRFNPDGPIRDVSRGPILKQQLTWIRNQELAQGCNPNMSFSPEGFLSFETKDLNVIIYGNCKMRVTKKDGYLVMENDECNSQSDGNKCRGLMYVDRLYGNAIASVQTNFHKDTSRNEKFYGAGEVNCRYEEQGKAPTYVLERSGLAMTNYNYDNLNYNQPDVVPPGYPDHPNYYIPMYYAAPWLVVQGCAGTSKQYSYGWFMDNVSQSYMNTGDTAWNCGQENLAYMGAQYGPFDQHFVYGDGDGLEDVVKAFSFLQGKEFEDKKLNKRSVMPPKYVFGFFQGVFGALSLLKQNLPAGENNISVQEIVEGYQDNDYPFEGLAVDVDMQDDLRVFTTKPEYWSANMVGEGGDPNNRSVFEWAHDRGLVCQTNVTCFLRNDNSGKPYEVNQTLREKQLYTKNDSLNNTDFGTTSDGPGDAYIGHLDYGGGVECDAIFPDWGRPDVAQWWGENYKKLFSIGLDFVWQDMTVPAMMPHRLGDAVNKNSGSSAPGWPNENDPSNGRYNWKSYHPQVLVTDMRYGAEYGREPMVSQRNIHAYTLCESTRREGIVGNADSLTKFRRSYIISRGGYIGNQHFGGMWVGDNSATESYLQMMLANIINMNMSCLPLVGSDIGGFTQYNDAGDPTPEDLMVRFVQAGCLLPWFRNHYDRWIESKKHGKKYQELYMYPGQKDTLKKFVEFRYRWQEVLYTAMYQNATTGEPIIKAAPMYNNDVNVYKSQNDHFLLGGHDGYRILCAPVVRENATSREVYLPVYSKWFKFGPDFDTKPLENEIQGGQTLYNYAAPLNDSPIFVREGTILPTRYTLDGVNKSINTYTDNDPLVFELFPLENNQAHGLFYHDDGGVTTNAEDFGKYSVISVKAAQEGSQMSVKFDNEVYEHQWGASFYVRVRNMGAPSNINVSSQIGQQDMQQSSVSSRAQMFTSANDGEYWVDQSTNSLWLKLPGAVIQDAAITVR
pI [4]: 4.1
